In one assay the target is T1, HSP90a protein (Homo sapiens, UniProt P07900).
T1 construct: purchased BPS Bioscience 50298
In words: HSP90α-binding fluorescent polarization (FP) assay, BODIPY-labeled RNK04010 probe. Particulars: FP competition with RNK04010 (BODIPY-labeled), 5 nM, 300 min at 25° C. On the procedure:
HSP90α-Binding Fluorescent Polarization (FP) Assay
Binding of test compounds to HSP90a protein was measured by fluorescent polarization (FP) using the HSP90a (N-terminal) Assay Kit (BPS Bioscience, #50298), following the manufacturer's instructions, except as noted. Fluorescently labeled HSP90-binding compounds, either the provided FITC-geldanamycin (5 nM final concentration) or RNK04010, a triazolone-based HSP90 binding small molecule labeled with BODIPY through a piperizine-phenyl linker (5 nM final concentration) were employed. A 2.5-fold serial dilution of each test compound ranging from 20 μM to 5.2 nM was assayed for binding to HSP90a. After the final step of adding HSP90a protein to each assay well, plates were mixed by brief shaking, incubated at 25° C. for 120 min for FITC-geldanamycin or 300 min for RNK04010, and fluorescence was measured using a PerkinElmer EnVision Plate Reader.

The test system of assay [1] is MIA PaCa-2 human pancreatic carcinoma. In words: MIA PaCa-2 CCK-8 proliferation assay. The format is cell-based. As to conditions: Homo sapiens, MIA PaCa-2, 72 h, MIA PaCa-2 cells. On the procedure:
The following cancer cell lines were employed: BT-474 human breast carcinoma (ATCC, #HTB-20); MIA PaCa-2 human pancreatic carcinoma [2 copies KRAS(G12C)](ATCC, #CRL-1420); NCI-H23 human non-small cell lung cancer [1 copy KRAS(G12C)](ATCC, #CRL-5800); NCI-H358 human non-small cell lung cancer [1 copy KRAS(G12C)](ATCC, #CRL-5807); LU65A human lung carcinoma (Pharmaron, Beijing, China). Cell lines were cultured essentially according to ATCC and Pharmaron recommendations.
Cancer Cell Line Proliferation (CCK-8) Assays
3-fold serial dilutions of each test compound were prepared ranging from 20 μM to 1.02 nM.
% Inhibition=100−(D−B)/(S−B)*100%. • S: Absorbance of cells treated with DMSO • D: Absorbance of compound-treated cells • B: Absorbance of medium with DMSO without cells
(In general: Tetrazolium assays rely on reduction of a dye to a coloured formazan, in cell work by metabolically active cells.)

The structures appear in SMILES notation.

As a reminder, the IC50 is the midpoint of a concentration-inhibition curve. For the compound `C=CC(=O)N1CCN(c2nc(NCCC(=O)NCc3ccc(CN4CCC(Cc5ccc(-n6c(C(=O)NC(C)C)nnc6-c6cc(C(C)C)c(O)cc6O)cc5)CC4)cc3)nc3c2CCN(c2cc(O)cc4ccccc24)C3)CC1` [Compound 126, 4-(4-((1-(4-((3-((4-(4-acryloylpiperazin-1-yl)-7-(3-hydroxynaphthalen-1-yl)-5,6,7,8-tetrahydropyrido[3,4-d]pyrimidin-2-yl)amino)propanamido)methyl)benzyl)piperidin-4-yl)methyl)phenyl)-5-(2,4-dihydroxy-5-isopropylphenyl)-N-isopropyl-4H-1,2,4-triazole-3-carboxamide, trifluoroacetic acid], the IC50 on HSP90a protein was 100 to 1000 nM.
On to `C=CC(=O)N1CCN(c2nc(OC[C@@H]3CCN(C(=O)c4ccc5c(c4)CN(C(=O)c4cc(C(C)C)c(O)cc4O)C5)C3)nc3c2CCN(c2cccc4cccc(Cl)c24)C3)C[C@@H]1CC#N` [Compound 175, 2-((S)-1-acryloyl-4-(7-(8-chloronaphthalen-1-yl)-2-(((R)-1-(2-(2,4-dihydroxy-5-isopropylbenzoyl)isoindoline-5-carbonyl)pyrrolidin-3-yl)methoxy)-5,6,7,8-tetrahydropyrido[3,4-d]pyrimidin-4-yl)piperazin-2-yl)acetonitrile], for which, on HSP90a protein, the IC50 was more than 1000 nM.
On HSP90a protein, `C=CC(=O)N1CCN(c2nc(OC[C@@H]3CCN(C(=O)c4ccc5c(c4)CN(C(=O)c4cc(CC)c(O)cc4O)C5)C3)nc3c2CCN(c2cccc4cccc(Cl)c24)C3)C[C@@H]1CC#N` [Compound 176, 2-((S)-1-acryloyl-4-(7-(8-chloronaphthalen-1-yl)-2-(((R)-1-(2-(5-ethyl-2,4-dihydroxybenzoyl)isoindoline-5-carbonyl)pyrrolidin-3-yl)methoxy)-5,6,7,8-tetrahydropyrido[3,4-d]pyrimidin-4-yl)piperazin-2-yl)acetonitrile] came in with an IC50 of more than 1000 nM.
Same read-out and setting: the value for `CC(C)c1cc(-c2nnc(O)n2-c2ccc(CN3CCC(C(=O)N4CC[C@@H](COc5nc6c(c(N7CCN(C(=O)C(F)(F)F)[C@@H](CC#N)C7)n5)CCN(c5cccc7cccc(Cl)c57)C6)C4)CC3)cc2)c(O)cc1O` [Compound 177, 2-((S)-4-(7-(8-chloronaphthalen-1-yl)-2-(((R)-1-(1-(4-(3-(2,4-dihydroxy-5-isopropylphenyl)-5-hydroxy-4H-1,2,4-triazol-4-yl)benzyl)piperidine-4-carbonyl)pyrrolidin-3-yl)methoxy)-5,6,7,8-tetrahydropyrido[3,4-d]pyrimidin-4-yl)-1-(2,2,2-trifluoroacetyl)piperazin-2-yl)acetonitrile] was 100 to 1000 nM.
What is called EC50 is the concentration needed to bring the measured effect to its halfway point. In turn, `C=CC(=O)N1CCN(c2nc(OC[C@@H]3CCN(C(=O)COc4ccc(Nc5cc(-n6nc(C(F)(F)F)c7c6CC(C)(C)CC7=O)ccc5C(N)=O)cc4)C3)nc3c2CCN(c2cccc4cccc(Cl)c24)C3)C[C@@H]1CC#N` [Compound 178, 2-((4-(2-((R)-3-(((4-((S)-4-acryloyl-3-(cyanomethyl)piperazin-1-yl)-7-(8-chloronaphthalen-1-yl)-5,6,7,8-tetrahydropyrido[3,4-d]pyrimidin-2-yl)oxy)methyl)pyrrolidin-1-yl)-2-oxoethoxy)phenyl)amino)-4-(6,6-dimethyl-4-oxo-3-(trifluoromethyl)-4,5,6,7-tetrahydro-1H-indazol-1-yl)benzamide] showed an IC50 on HSP90a protein of more than 1000 nM. Also, in assay [1], the EC50 is more than 1000 nM.
`C=CC(=O)N1CCN(c2nc(OCC3CCN(C(=O)C4CCN(Cc5ccc(-n6c(O)nnc6-c6cc(C(C)C)c(O)cc6O)cc5)CC4)CC3)nc3c2CCN(c2cccc4cccc(Cl)c24)C3)C[C@@H]1CC#N` [Compound 179, (S)-2-(1-acryloyl-4-(7-(8-chloronaphthalen-1-yl)-2-((1-(1-(4-(3-(2,4-dihydroxy-5-isopropylphenyl)-5-hydroxy-4H-1,2,4-triazol-4-yl)benzyl)piperidine-4-carbonyl)piperidin-4-yl)methoxy)-5,6,7,8-tetrahydropyrido[3,4-d]pyrimidin-4-yl)piperazin-2-yl)acetonitrile] came in with an IC50 at HSP90a protein of less than 100 nM. In assay [1], the EC50 is 100 to 1000 nM.
`C=CC(=O)N1CCN(c2nc(OC[C@@H]3CCN(C(=O)C4CCN(Cc5ccc(-n6c(O)nnc6-c6cc(C)c(O)cc6O)cc5)CC4)C3)nc3c2CCN(c2cccc4cccc(Cl)c24)C3)C[C@@H]1CC#N` [Compound 180, 2-((S)-1-acryloyl-4-(7-(8-chloronaphthalen-1-yl)-2-(((R)-1-(1-(4-(3-(2,4-dihydroxy-5-methylphenyl)-5-hydroxy-4H-1,2,4-triazol-4-yl)benzyl)piperidine-4-carbonyl)pyrrolidin-3-yl)methoxy)-5,6,7,8-tetrahydropyrido[3,4-d]pyrimidin-4-yl)piperazin-2-yl)acetonitrile] came in with an IC50 at HSP90a protein of 100 to 1000 nM. The compound further registered an EC50 in assay [1] of more than 1000 nM.
The corresponding values for `C=CC(=O)N1CCN(c2nc(OC[C@@H]3CCN(C(=O)c4ccc(Nc5cc(-n6nc(C(F)(F)F)c7c6CC(C)(C)CC7=O)ccc5C(N)=O)cc4)C3)nc3c2CCN(c2cccc4cccc(Cl)c24)C3)C[C@@H]1CC#N` [Compound 181, 2-((4-((R)-3-(((4-((S)-4-acryloyl-3-(cyanomethyl)piperazin-1-yl)-7-(8-chloronaphthalen-1-yl)-5,6,7,8-tetrahydropyrido[3,4-d]pyrimidin-2-yl)oxy)methyl)pyrrolidine-1-carbonyl)phenyl)amino)-4-(6,6-dimethyl-4-oxo-3-(trifluoromethyl)-4,5,6,7-tetrahydro-1H-indazol-1-yl)benzamide] are more than 1000 nM and more than 1000 nM.
On HSP90a protein, `C=CC(=O)N1CCN(c2nc(OC[C@@H]3CCN(CCCOCCC(=O)NCc4ccc(-n5c(O)nnc5-c5cc(C(C)C)c(O)cc5O)cc4)C3)nc3c2CCN(c2cccc4cccc(Cl)c24)C3)C[C@@H]1CC#N` [Compound 182, 3-(3-((R)-3-(((4-((S)-4-acryloyl-3-(cyanomethyl)piperazin-1-yl)-7-(8-chloronaphthalen-1-yl)-5,6,7,8-tetrahydropyrido[3,4-d]pyrimidin-2-yl)oxy)methyl)pyrrolidin-1-yl)propoxy)-N-(4-(3-(2,4-dihydroxy-5-isopropylphenyl)-5-hydroxy-4H-1,2,4-triazol-4-yl)benzyl)propanamide] returned an IC50 of less than 100 nM. Besides, the EC50 in assay [1] was more than 1000 nM.
`C=CC(=O)N1CCN(c2nc(OC[C@H]3CCN(C(=O)C4CCN(Cc5ccc(-n6c(O)nnc6-c6cc(C(C)C)c(O)cc6O)cc5)CC4)C3)nc3c2CCN(c2cccc4cccc(Cl)c24)C3)C[C@@H]1CC#N` [Compound 184, 2-((S)-1-acryloyl-4-(7-(8-chloronaphthalen-1-yl)-2-(((S)-1-(1-(4-(3-(2,4-dihydroxy-5-isopropylphenyl)-5-hydroxy-4H-1,2,4-triazol-4-yl)benzyl)piperidine-4-carbonyl)pyrrolidin-3-yl)methoxy)-5,6,7,8-tetrahydropyrido[3,4-d]pyrimidin-4-yl)piperazin-2-yl)acetonitrile] yielded an IC50 on HSP90a protein of 100 to 1000 nM. In addition, the EC50 in assay [1] fell in the range of 100 to 1000 nM.
At HSP90a protein, `C=CC(=O)N1CCN(c2nc(OC[C@@H]3CN(C(=O)C4CCN(Cc5ccc(-n6c(C(=O)NCC(F)(F)F)nnc6-c6cc(C(C)C)c(O)cc6O)cc5)CC4)CCN3C)nc3c2CCN(c2cccc4cccc(Cl)c24)C3)C[C@@H]1CC#N` [Compound 199, 4-(4-((4-((S)-3-(((4-((S)-4-acryloyl-3-(cyanomethyl)piperazin-1-yl)-7-(8-chloronaphthalen-1-yl)-5,6,7,8-tetrahydropyrido[3,4-d]pyrimidin-2-yl)oxy)methyl)-4-methylpiperazine-1-carbonyl)piperidin-1-yl)methyl)phenyl)-5-(2,4-dihydroxy-5-isopropylphenyl)-N-(2,2,2-trifluoroethyl)-4H-1,2,4-triazole-3-carboxamide] showed an IC50 of less than 100 nM. Further, in assay [1], the EC50 is 100 to 1000 nM.
Compound `C=CC(=O)N1CCN(c2nc(OCC3(CN4CCN(Cc5ccc(-n6c(C(=O)NCC)nnc6-c6cc(C(C)C)c(O)cc6O)cc5)CC4)CC3)nc3c2CCN(c2cccc(C)c2C)C3)C[C@@H]1CC#N` [Compound 291, 4-(4-{[4-({1-[({4-[(3S)-3-(cyanomethyl)-4-(prop-2-enoyl)piperazin-1-yl]-7-(2,3-dimethylphenyl)-5H,6H,8H-pyrido[3,4-d]pyrimidin-2-yl}oxy)methyl]cyclopropyl}-methyl)piperazin-1-yl]methyl}phenyl)-5-(2,4-dihydroxy-5-isopropylphenyl)-N-et-hyl-1,2,4-triazole-3-carboxamide] displayed an EC50 in assay [1] of less than 100 nM.
`C=CC(=O)N1CCN(c2nc(OCC3(CN4CCN(Cc5ccc(-n6c(O)nnc6-c6cc(C(C)C)c(O)cc6O)cc5)CC4)CC3)nc3c2CCN(c2cccc(C)c2C)C3)C[C@@H]1CC#N` [Compound 292, 2-[(2S)-4-{2-[(1-{[4-({4-[3-(2,4-dihydroxy-5-isopropylphenyl)-5-hydroxy-1,2,4-triazol-4-yl]phenyl}methyl)piperazin-1-yl]methyl}cyclopropyl)methoxy]-7-(2,3-dimethylphenyl)-5H,6H,8H-pyrido[3,4-d]pyrimidin-4-yl}-1-(prop-2-enoyl)piperazin-2-yl]acetonitrile] registered an EC50 in assay [1] of 100 to 1000 nM.
